Data as given in article PMC9867241, “Antioxidant and Cytotoxic Activity of New Polyphenolic Derivatives of Quinazolin-4(3H)-one: Synthesis and In Vitro Activities Evaluation” (Pharmaceutics, 2022).
≈ marks a conversion by molar mass, not a printed value.

Legend:
[1] = DPPH˙ radical scavenging assay
Description: The stock solutions (1 mg/mL) of the tested compounds and the controls were obtained, by dissolving the substances in dimethyl sulfoxide (DMSO). Using Jasco V-530, an UV-VIS spectrophotometer (Jasco International Co., Ltd., Tokyo, Japan), we performed the colorimetric determinations in low-volume single-use 10 mm width cuvettes.
The assays were performed in triplicate and the results are presented as averages for each assay.
The DPPH˙ radical scavenging assay is based on the transfer of one hydrogen from the analyzed compound to the violet stable free radical DPPH˙ (2,2-diphenyl-1-picrylhydrazyl), as we convert it into a yellow compound. The absorbance of the reagent mixed with samples presented inversely proportional values to the amount of DPPH˙ neutralized. The absorbance of the reagent was measured at λ = 517 nm, according to our previous reports. The assay was made in the presence of various concentrations of samples. The used protocol is based on the report of Brand-Williams et al..

[2] = NO˙ radical scavenging assay (Griess reaction); settings: PBS pH 7.4, sodium nitroprusside
Description: The scavenging of the NO˙ radical was performed by applying previously reported protocols. The in vitro protocol describes the decomposition of sodium nitroprusside in phosphate buffered saline (PBS) at pH = 7.4. The NO˙ radicals would be involved in a Griess reaction if they were not captured by the tested compounds. This reaction results from the formation of an azo dye, with maximum absorption at 546 nm. This azo dye is formed from sulfanilic acid and naphthyl ethylenediamine dichloride.

[3] = Ferric reducing antioxidant potential (FRAP) assay; set-up: concentration or dose not given beside the values; settings: for FRAP, % of Activity of Trolox: relative to Trolox; for FRAP, % of Activity of Ascorbic Acid: relative to ascorbic acid
Description: In the ferric reducing antioxidant potential (FRAP) assay, in comparison with a blank sample prepared from DMSO mixed with FRAP reagent, the absorbance of the solutions was measured at λ = 593 nm. The compounds were tested according to a modified method proposed initially by Benzie and Strain [31]. Using Equation (4), we calculated the reducing antioxidant potential of 5a–d and 6a–d as a percentage of the activity of the reference compounds:(4) % of control activity=sample absorbance/reference absorbance×100
Ferrous ions resulting from the reduction of ferric ions in the presence of an antioxidant compound form a blue-colored complex (Fe^2+-TPTZ) at pH = 3.6 with tripyridyltriazine (2,4,6-tris(2-pyridyl)-s-triazine). The intensity of the blue complex formed is proportional to the number of ferrous ions. Compounds 5a, 5c and 5d expressed a good electron donation capacity.

[4] = Reducing power (RP) assay; set-up: concentration or dose not given beside the values; settings: for RP, % of Activity of Trolox: relative to Trolox; for RP, % of Activity of Ascorbic Acid: relative to ascorbic acid
Description: Herein, the iron (III) is not free in the solution as it was in the FRAP assay and is complexed by cyanide ions. The evaluation of the reducing power (RP) was performed at a pH closer to neutral (pH = 6.6); this is different from the FRAP test, which is performed in an acidic environment. Against a blank sample, the absorbances were measured at λ = 700 nm. The followed protocol was based on the adaptation of previously reported protocols and was previously reported by our group. Using Equation (4), we calculated the reducing power of the 5a–d and 6a–d compounds as a percentage of the reference compounds activity.
The evaluated compounds can reduce ferricyanide to ferrocyanide, in the presence of ferric ions, resulting in the Perl’s Prussian which gives blue. The higher the percentage of reducing power, the higher was the absorbance that was measured due to a higher amount of colored complex resulting from the reaction.

[5] = Cupric reducing antioxidant capacity (CUPRAC) assay; set-up: concentration or dose not given beside the values; settings: for CUPRAC, % of Activity of Trolox: relative to Trolox; for CUPRAC, % of Activity of Ascorbic Acid: relative to ascorbic acid
Description: The ability to donate electrons was evaluated for the compounds 5a–d and 6a–d, by the CUPRAC (CUPric reducing antioxidant capacity) method. The absorbance was measured against a blank sample, at λ = 450 nm. The assay was performed based on our group’s previous report by the adaptation of the initial report of Alam et al., Özyürek et al. and Apak et al.. With the use of Equation (4), the cupric ion reduction by compounds 5a–d and 6a–d was expressed as a percentage of the reference compound activity.
The Cu^2+ ions are reduced to Cu^+ ions by the electron-donating compounds. The Cu^+ ions are chelated by neocuproine, giving a colored complex with absorbance proportional to the quantity of Cu^+ ions that resulted.

[6] = Fe^2+ chelation assay (ferrozine competition)
Description: In the protocol used for evaluating the Fe^2+ chelating ability of the compounds, the absorbances of the solutions were determined at λ = 562 nm, against a blank sample. The method was adapted from the initial report of Benzie and Strain et al., which was previously reported by our group. Using Equation (5), we calculated the iron chelation capacities of the 5a–d and 6a–d compounds:(5) iron chelation (%)=control absorbance−sample absorbance/control absorbance×100
The chelating capacity of the tested compounds of Fe^2+ was evaluated based on their competition for Fe^2+ with ferrozine.

[7] = Cu^2+ chelation assay (murexide competition)
Description: With murexide as a chromophoric chelator, we performed the protocol followed for the evaluation of Cu^2+ chelating activities of the compounds using an adaptation of the method presented by Cesari et al. and Wu et al.. Using Equation (6), we calculated the copper chelation capacities of the 5a–d and 6a–d compounds:(6) copper chelation (%)=(A485/A520)control−(A485/A520)sample/(A485/A520)control×100
The evaluation of the Cu^2+ chelation activity of compounds was made based on the competition for Cu^2+ with murexide. The chelating activity of compounds for the cupric ions found in the current assay is significant for the pyrogallol derivatives, being quite close to EDTA-Na2.

Row | Structure (SMILES) | IC50 [1] | IC50 (DPPH˙ scavenging) [1] | % of DPPH˙ Scavenging ([1]; 1.25 µg/mL) | % of DPPH˙ Scavenging ([1]; 2.5 µg/mL) | % of DPPH˙ Scavenging ([1]; 3.75 µg/mL) | % of DPPH˙ Scavenging ([1]; 5 µg/mL) | % of DPPH˙ Scavenging ([1]; 7.5 µg/mL) | % of DPPH˙ Scavenging ([1]; 10 µg/mL) | % of DPPH˙ Scavenging ([1]; 12.5 µg/mL) | % of DPPH˙ Scavenging ([1]; 15 µg/mL) | % of NO˙ Scavenged [2] | FRAP, % of Activity of Trolox [3] | FRAP, % of Activity of Ascorbic Acid [3] | RP, % of Activity of Trolox [4] | RP, % of Activity of Ascorbic Acid [4] | CUPRAC, % of Activity of Trolox [5] | CUPRAC, % of Activity of Ascorbic Acid [5] | Ferrous ions Chelation Capacity (%) ([6]; 17.70 µg/mL) | Ferrous ions Chelation Capacity (%) ([6]; 20.59 µg/mL) | Ferrous ions Chelation Capacity (%) ([6]; 29.41 µg/mL) | also measured
1 | C=CCn1c(SCC(=O)NN=Cc2ccc(O)c(O)c2O)nc2ccccc2c1=O [Compound 5a, 2-((3-Allyl-4-oxo-3,4-dihydroquinazolin-2-yl)thio)-N’-(2,3,4-trihydroxybenzylidene)acetohydrazide] | 6.47 µM | 2.76 µg/mL (≈ 6.47 µM) | 41.09% | 49.94% | 54.93% | 62.06% | 73.89% | + (+ represents more than 95%) | + (+ represents more than 95%) | + (+ represents more than 95%) | 38.39% | 98.88% | 86.18% | 92.09% | 63.20% | 126.56% | 132.79% | - (- represents less than 5%) | - (- represents less than 5%) | - (- represents less than 5%) | Ferrous ions Chelation Capacity (%) ([6]; 44.11 µg/mL): - (- represents less than 5%); Ferrous ions Chelation Capacity (%) ([6]; 58.82 µg/mL): 18.44%; Ferrous ions Chelation Capacity (%) ([6]; 88.23 µg/mL): 34.12%; Ferrous ions Chelation Capacity (%) ([6]; 117.64 µg/mL): 45.93%; Ferrous ions Chelation Capacity (%) ([6]; 257.46 µg/mL): 71.76%; Ferrous ions Chelation Capacity (%) ([6]; 343.28 µg/mL): 86.30%; Cupric ions Chelation Capacity (%) ([7]; 3.36 µg/mL): 20.33%; Cupric ions Chelation Capacity (%) ([7]; 8.40 µg/mL): 30.76%; Cupric ions Chelation Capacity (%) ([7]; 16.80 µg/mL): 40.29%
2 | CCCCn1c(SCC(=O)NN=Cc2ccc(O)c(O)c2O)nc2ccccc2c1=O [Compound 5d, 2-((3-Butyl-4-oxo-3,4-dihydroquinazolin-2-yl)thio)-N’-(2,3,4-trihydroxybenzylidene)acetohydrazide] | 4.93 µM | 2.18 µg/mL (≈ 4.93 µM) | 41.12% | 53.03% | 63.53% | 71.70% | 87.99% | + (+ represents more than 95%) | + (+ represents more than 95%) | + (+ represents more than 95%) | 35.14% | 92.71% | 80.80% | 72.18% | 49.54% | 106.43% | 111.66% | - (- represents less than 5%) | - (- represents less than 5%) | - (- represents less than 5%) | Ferrous ions Chelation Capacity (%) ([6]; 44.11 µg/mL): - (- represents less than 5%); Ferrous ions Chelation Capacity (%) ([6]; 58.82 µg/mL): - (- represents less than 5%); Ferrous ions Chelation Capacity (%) ([6]; 88.23 µg/mL): - (- represents less than 5%); Ferrous ions Chelation Capacity (%) ([6]; 117.64 µg/mL): 58.18%; Ferrous ions Chelation Capacity (%) ([6]; 257.46 µg/mL): 71.56%; Ferrous ions Chelation Capacity (%) ([6]; 343.28 µg/mL): 80.50%; Cupric ions Chelation Capacity (%) ([7]; 3.36 µg/mL): 14.19%; Cupric ions Chelation Capacity (%) ([7]; 8.40 µg/mL): 28.04%; Cupric ions Chelation Capacity (%) ([7]; 16.80 µg/mL): 41.42%
3 | CCn1c(SCC(=O)NN=Cc2ccc(O)c(O)c2O)nc2ccccc2c1=O [Compound 5c, 2-((3-Ethyl-4-oxo-3,4-dihydroquinazolin-2-yl)thio)-N’-(2,3,4-trihydroxybenzylidene)acetohydrazide] | 4.46 µM | 1.85 µg/mL (≈ 4.46 µM) | 44.32% | 55.40% | 64.87% | 73.44% | 90.15% | + (+ represents more than 95%) | + (+ represents more than 95%) | + (+ represents more than 95%) | 43.21% | 95.70% | 83.40% | 72.75% | 49.93% | 110.95% | 116.41% | - (- represents less than 5%) | - (- represents less than 5%) | - (- represents less than 5%) | Ferrous ions Chelation Capacity (%) ([6]; 44.11 µg/mL): - (- represents less than 5%); Ferrous ions Chelation Capacity (%) ([6]; 58.82 µg/mL): - (- represents less than 5%); Ferrous ions Chelation Capacity (%) ([6]; 88.23 µg/mL): - (- represents less than 5%); Ferrous ions Chelation Capacity (%) ([6]; 117.64 µg/mL): 20.27%; Ferrous ions Chelation Capacity (%) ([6]; 257.46 µg/mL): 65.75%; Ferrous ions Chelation Capacity (%) ([6]; 343.28 µg/mL): 89.24%; Cupric ions Chelation Capacity (%) ([7]; 3.36 µg/mL): 13.06%; Cupric ions Chelation Capacity (%) ([7]; 8.40 µg/mL): 23.23%; Cupric ions Chelation Capacity (%) ([7]; 16.80 µg/mL): 32.60%
4 | O=C(CSc1nc2ccccc2c(=O)n1Cc1ccccc1)NN=Cc1ccc(O)c(O)c1O [Compound 5b, 2-((3-Benzyl-4-oxo-3,4-dihydroquinazolin-2-yl)thio)-N’-(2,3,4-trihydroxybenzylidene)acetohydrazide] | 7.6 µM | 3.62 µg/mL (≈ 7.6 µM) | 37.55% | 45.21% | 51.00% | 56.36% | 69.66% | 81.12% | + (+ represents more than 95%) | + (+ represents more than 95%) | 36.75% | 76.93% | 67.05% | 85.68% | 58.80% | 92.75% | 97.31% | - (- represents less than 5%) | - (- represents less than 5%) | - (- represents less than 5%) | Ferrous ions Chelation Capacity (%) ([6]; 44.11 µg/mL): - (- represents less than 5%); Ferrous ions Chelation Capacity (%) ([6]; 58.82 µg/mL): - (- represents less than 5%); Ferrous ions Chelation Capacity (%) ([6]; 88.23 µg/mL): - (- represents less than 5%); Ferrous ions Chelation Capacity (%) ([6]; 117.64 µg/mL): - (- represents less than 5%); Ferrous ions Chelation Capacity (%) ([6]; 257.46 µg/mL): 19.02%; Ferrous ions Chelation Capacity (%) ([6]; 343.28 µg/mL): 35.16%; Cupric ions Chelation Capacity (%) ([7]; 3.36 µg/mL): 11.17%; Cupric ions Chelation Capacity (%) ([7]; 8.40 µg/mL): 25.27%; Cupric ions Chelation Capacity (%) ([7]; 16.80 µg/mL): 40.20%
